Results reported in US6984656B2, “Core modified porphyrins” (priority 2001, dated 2006).

How the values were obtained:
R3230AC cells = assay: Viability of R3230AC cells in the dark and after light; format: cell-based, rat; settings: 10^−6 M; 24 h after 0.9 J cm^−2 of 590-750 nm light
BALB/c mice = assay: Preliminary toxicity, single intravenous injection in BALB/c mice
MCF-7 cells = assay: Photosensitizer uptake in cultured MCF-7 cells by fluorescence; format: cell-based; settings: 10 μM and 100 μM, 24 h
Procedure: To establish baseline fluorescence, control cells incubated with MEM not containing either photosensitizer were used. […] A time course to determine when the fluorescence approached its maximum was performed for DH-82 and Photofrin®.
To determine the final intracellular concentrations of each sensitizer, cells in 96-well plates were incubated with sensitizer for 24 h. Detection of fluorescence in sensitizer-treated cells was made directly in the wells of the 96-well plate using the appropriate excitation and emission wavelengths.
Photosensitizer uptake experiments are conducted with fluorescent sensitizers. First, cells will be removed from 100-mm dishes by trypsinization (see above) and seeded on 96-well plates at 5×10^4 cells/well in 200 μL of MEM. […] To establish baseline fluorescence, control cells incubated with MEM not containing any photosensitizer are used. […] Fluorescence of the cells is determined using a Spectramax Gemini spectrofluorimeter (Molecular Devices, Sunnyvale, Calif.). Sensitizers will be compared according to the rate at which the fluorescence approached its maximum final emission per 10^5 cells as well as by the final sensitizer concentrations in cells. The fluorescence values calculated for 10^5 cells will be compared to a standard curve of fluorescence obtained from known concentrations of each sensitizer.

[1] = Tissue distribution by fluorescence in tumor-bearing BALB/c mice
Procedure: At various times after sensitizer administration, animals were sacrificed and sensitizer levels determined by direct extraction. In tumor-bearing animals (BALB/c mice or female Fischer rats), the concentration of sensitizer was determined by fluorescence spectroscopy where possible. At various time points post-injection of 5 μmol/kg of sensitizer or 90% of the LD10 (whichever is smaller), tissues were removed, weighed, homogenized, and frozen in liquid nitrogen (3-5 animals per time point). The homogenate, after thawing, was taken up in Solvable and the emission from sensitizer was quantified in terms of ng of sensitizer/mg of protein. With non-fluorescent sensitizers, sensitizer content was quantified spectrophotometrically. Distribution ratios were expressed as the uptake or retention of sensitizer in tumor relative to various normal tissues. Intensified digital fluorescence microscopy and/or confocal microscopy on frozen sections of the tumors, which were prepared from samples specified for this purpose, enabled us to assess intratumor sensitizer distributions.

cytochrome c oxidase = assay: Whole cell mitochondrial cytochrome c oxidase activity in R3230AC cells; format: cell-based, rat
Procedure: In parallel experiments, mitochondrial cytochrome c oxidase activity was determined after exposure of R3230AC cells to the same porphyrins either in the dark or 24 h after light exposure (FIG. 8b). […] In contrast, MA-99 inhibited whole cell cytochrome c oxidase activity by 60% after a 24-h incubation period in R3230AC cells. […] Cytochrome c oxidase activity in R3230AC cells irradiated in the presence of MA-99 was inhibited by 95%, […] in enzyme activity compared to that obtained from cells incubated with MA-99, but not exposed to light.
Determination of the effects of dyes on intracellular mitochondrial cytochrome c oxidase are performed on cultured R3230AC cells. Cultures are seeded at 1×10^5 cells/well on 12-well plates in 1.0 mL MEM (described above). Twenty-four h later, sensitizers are added at concentrations ranging from 10^−4 to 10^−6 M. Cells are incubated in the dark with the sensitizers in MEM for 24 h in a 37° C. incubator. […] Cytochrome c oxidase is measured as above after cell suspensions are thawed and sonicated on ice after 30 s at 10 s bursts using a Branson probe sonifier set at a power of 2. The whole-cell lysate is added to the cytochrome c reaction mixture and results are expressed as the amount of cytochrome c oxidase activity per 10^5 cells.

Colo-26 cells = assay: Dark and light-induced toxicity toward Colo-26 cells in culture; format: cell-based, murine
Procedure: In order to compare relative phototoxicity, the core-modified porphyrins of Table 1 were evaluated in culture for dark and light-induced toxicities toward Colo-26 cells, a murine colon carcinoma cell line.

[2] = tested on: R3230AC rat mammary adenocarcinoma cells; assay: Phototoxicity toward R3230AC cells in culture; format: cell-based; settings: 10 μM, 24 h; 570-800 nm light, 0.9 J cm^−2; 24 h post-irradiation
Procedure: Similar results were obtained with R3230AC rat mammary adenocarcinoma cells in vitro. […] Light-treated cells and dark controls were incubated for 24 h and cell survival was determined. The surviving fraction, 24 h post-irradiation, is shown graphically in FIG. 4c.

[3] = Rate of photobleaching in phosphate-buffered saline; format: physicochemical; settings: PBS; 570-750 nm light at 500 mW cm^−2; constant initial absorbance
Description: One limitation of PDT dosimetry is the rate of photobleaching of the photosensitizer, which can be problematic with Photofrin® and even more problematic with the bacteriochlorins and the chlorins (such as HPPH).

[4] = BALB/c mice with Colo-26 tumors, DH-82 5 mg/kg, MA-99 2.5 mg/kg

In the case of O=C([O-])COc1ccc(-c2c3nc(c(-c4ccc(F)cc4)c4ccc(s4)c(-c4ccc(F)cc4)c4nc(c(-c5ccc(OCC(=O)[O-])cc5)c5ccc2s5)C=C4)C=C3)cc1.[Na+].[Na+] [MA-99], the “reduction in cell number after light exposure” value (R3230AC cells) is reported as 40%, the “gross abnormalities in organs and tissues after sacrifice” value (BALB/c mice; 10 mg/kg i.v., after 90 days) is reported as “no gross abnormalities were noted” and the toxicity and morbidity (BALB/c mice; 10 mg/kg, followed 90 days post-injection, normal vivarium light) is reported as “neither toxicity nor morbidity was observed”. The “final intracellular concentration relative to that for DH-82” value (MCF-7 cells) was “approximately 80%”, the “concentration in tumor 24 h post-injection” value ([1]; 2.5 mg (3.2 μmol)/kg of MA-99, Colo-26 tumors) was 0.65±0.10 μg/mg of protein and the “increase in photosensitizer uptake in tumor relative to compound 6” value ([1]; 24 h post-injection) was “greater than twenty-fold increase”. For the same compound, the “concentration in skin at 1 h post-injection” value [1, 4] was 0.09±0.04 μg/mg of protein, the “concentration in skin at 24 h post-injection” value [1, 4] was 0.01±0.01 μg/mg of protein and the “concentration in tumor versus other tissues at 24 h post-injection” value ([1]; liver, kidney, lung, heart, spleen, muscle, skin) was “higher in the tumor than in the other tissues examined”. For the same compound, the “inhibition of whole cell cytochrome c oxidase activity in the dark” value (cytochrome c oxidase; 24-h incubation, dark) was 60%, the “reduction of cytochrome c oxidase activity after irradiation” value (cytochrome c oxidase; 24 h after 0.9 J cm^−2 of 590-750 nm light, vs control untreated cells) was 95% and the EC50 (Colo-26 cells; 4 J cm^−2 of 590-800 nm light, read-out: EC50 against Colo-26 cells) was 430 nM. The “phototoxicity relative to Photofrin® with laser excitation (FIG. 4a)” value (Colo-26 cells; Colo-26 cells, 694 nm dye laser for DH-82 and MA-99, 630 nm dye laser for Photofrin®) was “significantly greater phototoxicity at lower concentrations than Photofrin®”, the “phototoxicity relative to Photofrin® toward R3230AC cells (surviving fraction, FIG. 4c)” value [2] was “more phototoxic than Photofrin®” and the “rate of photobleaching (kbleach)” value [3] was 0.16 ± 0.02 × 10^4 s^−1.
